Laboratory results as given in US9181264B2, “Fused heteroaryls and their uses” (Hutchison MediPharma Limited, priority 2011, dated 2015).

Assays:
[1] = molecular target: T1, PI3Kα kinase (Homo sapiens, UniProt P42336); assay: PI3Ka Transcreener ADP assay (fluorescence polarization); format: biochemical; details: 10 μM ATP, 30 μmol/L lipid substrate; read-out: IC50, inhibition of PI3Kα kinase
T1 construct: purchased Invitrogen PV4788
Summary of the method: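 Transcreener ADP FP assay with PI3Kα (0.2 ng/μL), 30 μmol/L lipid substrate (PIP2) and 10 μM ATP (final) in HEPES pH 7.5 buffer with MgCl2, 0.03% CHAPS, 2% DMSO. 60 min reaction at room temperature, then ADP detection 1.5 h (ex 610/em 670 nm). ADP from standard curve; IC50 fitted.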

[2] = molecular target: T2, mTOR kinase (Homo sapiens, UniProt P42345); assay: mTOR LanthaScreen TR-FRET assay; format: biochemical; details: 10 μmol/L ATP, GFP-4EBP1 substrate; read-out: IC50, inhibition of mTOR
T2 construct: purchased Invitrogen PV4753
T2 sequence (P42345 1360-2549 limits assumed): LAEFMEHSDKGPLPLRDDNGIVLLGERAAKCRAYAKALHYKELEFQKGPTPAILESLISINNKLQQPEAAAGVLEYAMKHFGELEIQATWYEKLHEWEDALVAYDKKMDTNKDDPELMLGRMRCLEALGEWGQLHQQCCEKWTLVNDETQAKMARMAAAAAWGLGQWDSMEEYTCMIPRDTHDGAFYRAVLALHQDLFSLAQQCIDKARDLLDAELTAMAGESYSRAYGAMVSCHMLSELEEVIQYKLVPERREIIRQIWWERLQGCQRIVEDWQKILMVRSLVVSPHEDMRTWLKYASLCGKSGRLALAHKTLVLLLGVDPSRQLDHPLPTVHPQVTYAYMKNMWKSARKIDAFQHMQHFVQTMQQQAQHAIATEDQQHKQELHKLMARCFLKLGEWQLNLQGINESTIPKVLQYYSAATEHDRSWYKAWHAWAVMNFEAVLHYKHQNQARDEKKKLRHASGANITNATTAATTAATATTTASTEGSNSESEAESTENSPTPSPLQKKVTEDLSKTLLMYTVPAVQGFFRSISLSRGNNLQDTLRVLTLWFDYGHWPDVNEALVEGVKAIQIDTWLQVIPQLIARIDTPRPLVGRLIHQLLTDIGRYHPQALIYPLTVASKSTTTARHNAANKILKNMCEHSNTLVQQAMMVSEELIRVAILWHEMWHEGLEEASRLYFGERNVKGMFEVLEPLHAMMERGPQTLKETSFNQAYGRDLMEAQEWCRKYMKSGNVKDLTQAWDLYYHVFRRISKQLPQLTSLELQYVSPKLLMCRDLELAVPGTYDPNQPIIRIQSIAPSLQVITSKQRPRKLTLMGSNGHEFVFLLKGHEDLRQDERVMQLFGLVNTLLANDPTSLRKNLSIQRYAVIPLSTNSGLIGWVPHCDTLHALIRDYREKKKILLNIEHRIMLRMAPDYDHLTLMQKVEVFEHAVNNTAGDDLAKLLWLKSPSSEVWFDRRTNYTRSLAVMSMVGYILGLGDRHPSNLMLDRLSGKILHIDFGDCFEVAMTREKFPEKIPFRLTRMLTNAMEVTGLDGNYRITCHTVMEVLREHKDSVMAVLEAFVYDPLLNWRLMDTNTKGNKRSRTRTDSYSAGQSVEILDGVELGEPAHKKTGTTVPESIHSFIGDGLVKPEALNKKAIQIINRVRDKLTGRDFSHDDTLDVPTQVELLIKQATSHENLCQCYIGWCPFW
Description: Compounds are tested using LanthaScreen TR-FRET Assay. The kinase reaction is completed in 384-well black plate (Corning, Cat. 3676). The final conditions for kinase assay are: 10 μmol/L of ATP, 0.2 ng/μL of mTOR kinase, 0.4 μmol/L of GFP-4EBP1 substrate and assay buffer (50 mmol/L of HEPES, pH 7.5, 0.01% of Tween 20, 1 mmol/L of EGTA, 10 mmol/L of MnCl2, 2 mmol/L of DTT and 1% DMSO).
To each well, 2.5 μL of test compounds in 4% DMSO and 2.5 μL of 0.8 ng/μL mTOR kinase (Invitrogen, PV4753) diluted in assay buffer are added. The reaction is initiated by the addition of 5 μL mixture of 0.8 μmol/L GFP-4EBP1 Substrate (Invitorgen, PV4759) and 20 μmol/L ATP mixtures. The mixture is incubated at room temperature for 60 minutes. 10 μL of 20 mmol/L EDTA and 4 nmol/L Tb-anti-p4EBP1 [pThr46] antibody (Invitrogen, PV4755) diluted in TR-FRET dilution buffer are added and incubated for an additional 1 hour. The plate is then read in a BioTek Synergy2 Reader at excitation of 340 nm and emission of 490 nm and 528 nm.
The inhibition of test compound is calculated based on the ratio of 528 nm/490 nm. IC50 of test compound is obtained using XLfit 2.0 software.

T1 sequence (P42336 whole entry): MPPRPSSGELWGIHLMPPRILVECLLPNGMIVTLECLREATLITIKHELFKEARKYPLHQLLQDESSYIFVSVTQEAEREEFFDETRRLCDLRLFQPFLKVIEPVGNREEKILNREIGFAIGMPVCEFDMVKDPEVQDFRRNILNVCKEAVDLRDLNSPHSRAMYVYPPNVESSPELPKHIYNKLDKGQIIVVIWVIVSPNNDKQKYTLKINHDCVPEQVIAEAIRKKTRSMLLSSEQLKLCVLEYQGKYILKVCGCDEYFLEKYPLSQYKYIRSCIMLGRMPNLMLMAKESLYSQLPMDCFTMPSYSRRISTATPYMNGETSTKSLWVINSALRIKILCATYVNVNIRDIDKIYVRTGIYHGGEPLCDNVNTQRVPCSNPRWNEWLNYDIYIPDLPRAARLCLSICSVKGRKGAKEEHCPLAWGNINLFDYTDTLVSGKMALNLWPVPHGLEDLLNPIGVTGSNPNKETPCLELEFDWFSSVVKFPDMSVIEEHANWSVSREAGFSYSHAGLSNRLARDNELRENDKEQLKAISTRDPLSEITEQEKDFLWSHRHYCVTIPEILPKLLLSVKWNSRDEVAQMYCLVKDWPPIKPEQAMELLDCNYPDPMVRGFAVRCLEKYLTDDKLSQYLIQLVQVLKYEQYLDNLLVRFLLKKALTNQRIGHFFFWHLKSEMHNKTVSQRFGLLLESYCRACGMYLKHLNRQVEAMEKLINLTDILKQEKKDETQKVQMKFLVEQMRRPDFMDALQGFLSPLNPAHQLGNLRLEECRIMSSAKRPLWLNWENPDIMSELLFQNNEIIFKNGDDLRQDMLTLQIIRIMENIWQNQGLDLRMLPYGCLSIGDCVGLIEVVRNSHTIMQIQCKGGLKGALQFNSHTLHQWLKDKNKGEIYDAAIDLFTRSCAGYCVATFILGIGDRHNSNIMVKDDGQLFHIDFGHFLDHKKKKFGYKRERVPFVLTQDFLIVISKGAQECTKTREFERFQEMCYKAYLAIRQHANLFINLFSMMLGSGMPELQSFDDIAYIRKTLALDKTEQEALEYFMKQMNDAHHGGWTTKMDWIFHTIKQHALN
T1 sequence (P27986 whole entry partner): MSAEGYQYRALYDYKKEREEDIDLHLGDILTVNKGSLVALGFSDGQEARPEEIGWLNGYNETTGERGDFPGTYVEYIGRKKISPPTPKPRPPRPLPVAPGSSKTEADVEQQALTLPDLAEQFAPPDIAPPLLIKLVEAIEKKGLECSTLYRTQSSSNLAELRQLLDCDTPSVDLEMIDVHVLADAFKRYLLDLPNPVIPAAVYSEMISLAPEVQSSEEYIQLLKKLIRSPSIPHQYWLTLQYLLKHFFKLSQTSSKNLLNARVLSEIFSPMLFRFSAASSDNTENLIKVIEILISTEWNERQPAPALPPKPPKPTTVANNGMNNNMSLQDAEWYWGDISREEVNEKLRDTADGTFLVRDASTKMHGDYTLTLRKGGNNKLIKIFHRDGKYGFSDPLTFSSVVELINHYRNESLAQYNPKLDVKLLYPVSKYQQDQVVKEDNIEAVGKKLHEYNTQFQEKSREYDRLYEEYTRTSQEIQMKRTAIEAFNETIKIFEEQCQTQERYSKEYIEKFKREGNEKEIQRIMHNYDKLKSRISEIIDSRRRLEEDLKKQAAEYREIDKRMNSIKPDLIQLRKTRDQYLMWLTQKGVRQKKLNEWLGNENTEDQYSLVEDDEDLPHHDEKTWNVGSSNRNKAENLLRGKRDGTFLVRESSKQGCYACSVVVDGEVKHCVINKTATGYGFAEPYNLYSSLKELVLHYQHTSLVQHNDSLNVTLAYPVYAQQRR

In the case of `CC(C)(C#N)c1ccc(-c2nnc3cnc4ccc(-c5cnc6[nH]ncc6c5)cc4n23)cc1` [Compound 53], the IC50 [1] is reported as less than 100 nM and the IC50 [2] is reported as less than 100 nM.
Compound `COc1ncc(-c2ccc3ncc4nnc(OC)n4c3c2)cc1NS(=O)(=O)c1ccc(F)cc1F` [Compound 157] has an IC50 [1] of less than 100 nM and an IC50 [2] of less than 100 nM.
For `Cc1nc2cnc3ccc(-c4cnc(N)c(C(F)(F)F)c4)nc3c2n1C1CCN(CCO)CC1` [Compound 129], the IC50 [1] was less than 100 nM and the IC50 [2] was less than 100 nM.
`Nc1ncc(-c2ccc3ncc4nnn(Cc5ccc(F)cc5)c4c3c2)cn1` [Compound 12] was tested, and the IC50 [1] was less than 100 nM and the IC50 [2] was less than 100 nM.
For `COc1ncc(-c2ccc3ncc4c(c3c2)n(C)c(=O)n4C)cc1NS(=O)(=O)c1ccc(F)cc1F` [Compound 160], the IC50 [1] was less than 100 nM and the IC50 [2] was less than 100 nM.
`COc1ncc(-c2ccc3ncc4ncn(CCN(C)C)c4c3n2)cc1NS(=O)(=O)C(F)(F)F` [Compound 178] was tested, and the IC50 [1] was less than 100 nM and the IC50 [2] was less than 100 nM.
`Nc1ncc(-c2ccc3ncc4nnn(C5CCN(C(=O)C6CC6)CC5)c4c3n2)cc1C(F)(F)F` [Compound 9] was tested, and the IC50 [1] was less than 100 nM and the IC50 [2] was less than 100 nM.
With `C[C@@H](O)C(=O)N1CCC(n2nnc3cnc4ccc(-c5cnc(N)c(C(F)(F)F)c5)nc4c32)CC1` [Compound 21, (R)-1-(4-(8-(6-amino-5-(trifluoromethyl)pyridin-3-yl)-1H-[1,2,3]triazolo[4,5-c][1,5]naphthyridin-1-yl)piperidin-1-yl)-2-hydroxypropan-1-one] the IC50 [1] was less than 100 nM and the IC50 [2] was less than 100 nM.
With `COc1cc(-c2ccc3ncc4nnc(-c5ccc(C(C)(C)C#N)cc5)n4c3c2)cnc1N` [Compound 72] the IC50 [1] was less than 100 nM and the IC50 [2] was less than 100 nM.
`CC(C)(C#N)c1ccc(-c2nnc3cnc4ccc(-c5ccc6nc(N)oc6c5)cc4n23)cc1` [Compound 55] was tested, and the IC50 [1] was less than 100 nM and the IC50 [2] was less than 100 nM.
`COc1ncc(-c2ccc3ncc4nnc(C)n4c3c2)cc1NS(=O)(=O)c1ccccc1` [Compound 181] was tested, and the IC50 [1] was less than 100 nM and the IC50 [2] was less than 100 nM.
Compound `CC(C)(C#N)c1ccc(-c2nnc3cnc4ccc(-c5ccc6nc(N)sc6c5)cc4n23)cc1` [Compound 52] has an IC50 [1] of less than 100 nM and an IC50 [2] of less than 100 nM.
